Results taken from patent US20230157952A1, “METHOD FOR IMPROVING THE STABILITY OF A PHARMACEUTICAL COMPOSITION COMPRISING A HIGH PENETRATION DRUG, AND THE PHARMACEUTICAL COMPOSITION OBTAINED THEREFROM” (Techfields Inc., priority 2020, published 2023).
One block for each compound: values may come before it.

Test: Effect of temperature (and pH) on the stability of the solution (purity)
Assay type: physicochemical
Conditions: 7% solution in water

Purity(%) at day 0 (pH 1.0, day 0): 98.1 ± 0.3%
Purity(%) at day 21 (5° C.) (pH 1.0, day 21, 5° C.): 92.9 ± 0.3%
Purity(%) at day 21 (25° C.) (pH 1.0, day 21, 25° C.): 69.2 ± 0.3%
Purity(%) at day 21 (40° C.) (pH 1.0, day 21, 40° C.): 11.3 ± 0.3%
Purity (%) at day 21 (60° C.) (pH 1.0, day 21, 60° C.): 0%
Purity(%) at day 0 (pH 2.0, day 0): 98.2 ± 0.3%
Purity(%) at day 21 (5° C.) (pH 2.0, day 21, 5° C.): 96.1 ± 0.3%
Purity(%) at day 21 (25° C.) (pH 2.0, day 21, 25° C.): 83.0 ± 0.3%
Purity(%) at day 21 (40° C.) (pH 2.0, day 21, 40° C.): 20.5 ± 0.3%
Purity (%) at day 21 (60° C.) (pH 2.0, day 21, 60° C.): 0%
Purity(%) at day 0 (pH 3.0, day 0): 98.3 ± 0.2%
Purity(%) at day 21 (5° C.) (pH 3.0, day 21, 5° C.): 97.5 ± 0.2%
Purity(%) at day 21 (25° C.) (pH 3.0, day 21, 25° C.): 94.0 ± 0.3%
Purity(%) at day 21 (40° C.) (pH 3.0, day 21, 40° C.): 45.3 ± 0.2%
Purity (%) at day 21 (60° C.) (pH 3.0, day 21, 60° C.): 0%
Purity(%) at day 0 (pH 3.7, day 0): 98.5 ± 0.1%
Purity(%) at day 21 (5° C.) (pH 3.7, day 21, 5° C.): 97.6 ± 0.2%
Purity(%) at day 21 (25° C.) (pH 3.7, day 21, 25° C.): 96.6 ± 0.2%
Purity(%) at day 21 (40° C.) (pH 3.7, day 21, 40° C.): 51.9 ± 0.2%
Purity (%) at day 21 (60° C.) (pH 3.7, day 21, 60° C.): 11.3 ± 0.3%
Purity(%) at day 0 (pH 4.0, day 0): 98.6 ± 0.1%
Purity(%) at day 21 (5° C.) (pH 4.0, day 21, 5° C.): 98.0 ± 0.1%
Purity(%) at day 21 (25° C.) (pH 4.0, day 21, 25° C.): 96.7 ± 0.2%
Purity(%) at day 21 (40° C.) (pH 4.0, day 21, 40° C.): 62.7 ± 0.2%
Purity (%) at day 21 (60° C.) (pH 4.0, day 21, 60° C.): 18.6 ± 0.2%
Purity(%) at day 0 (pH 4.3, day 0): 98.6 ± 0.1%
Purity(%) at day 21 (5° C.) (pH 4.3, day 21, 5° C.): 98.0 ± 0.1%
Purity(%) at day 21 (25° C.) (pH 4.3, day 21, 25° C.): 96.7 ± 0.1%
Purity(%) at day 21 (40° C.) (pH 4.3, day 21, 40° C.): 63.1 ± 0.2%
Purity (%) at day 21 (60° C.) (pH 4.3, day 21, 60° C.): 17.7 ± 0.2%
Purity(%) at day 0 (pH 4.6, day 0): 98.6 ± 0.1%
Purity(%) at day 21 (5° C.) (pH 4.6, day 21, 5° C.): 98.0 ± 0.1%
Purity(%) at day 21 (25° C.) (pH 4.6, day 21, 25° C.): 96.6 ± 0.1%
Purity(%) at day 21 (40° C.) (pH 4.6, day 21, 40° C.): 50.3 ± 0.2%
Purity (%) at day 21 (60° C.) (pH 4.6, day 21, 60° C.): 12.3 ± 0.2%
Purity(%) at day 0 (pH 5.0, day 0): 98.4 ± 0.2%
Purity(%) at day 21 (5° C.) (pH 5.0, day 21, 5° C.): 97.1 ± 0.2%
Purity(%) at day 21 (25° C.) (pH 5.0, day 21, 25° C.): 92.9 ± 0.2%
Purity(%) at day 21 (40° C.) (pH 5.0, day 21, 40° C.): 39.8 ± 0.2%
Purity (%) at day 21 (60° C.) (pH 5.0, day 21, 60° C.): 2.9 ± 0.2%
Purity(%) at day 0 (pH 6.0, day 0): 98.2 ± 0.2%
Purity(%) at day 21 (5° C.) (pH 6.0, day 21, 5° C.): 94.8 ± 0.2%
Purity(%) at day 21 (25° C.) (pH 6.0, day 21, 25° C.): 86.8 ± 0.2%
Purity(%) at day 21 (40° C.) (pH 6.0, day 21, 40° C.): 20.6 ± 0.3%
Purity (%) at day 21 (60° C.) (pH 6.0, day 21, 60° C.): 0%
Purity(%) at day 0 (pH 7.0, day 0): 98.0 ± 0.2%
Purity(%) at day 21 (5° C.) (pH 7.0, day 21, 5° C.): 89.1 ± 0.3%
Purity(%) at day 21 (25° C.) (pH 7.0, day 21, 25° C.): 60.9 ± 0.2%
Purity(%) at day 21 (40° C.) (pH 7.0, day 21, 40° C.): 7.4 ± 0.3%
Purity (%) at day 21 (60° C.) (pH 7.0, day 21, 60° C.): 0%
Purity(%) at day 0 (pH 8.0, day 0): 97.7 ± 0.3%
Purity(%) at day 21 (5° C.) (pH 8.0, day 21, 5° C.): 78.7 ± 0.3%
Purity(%) at day 21 (25° C.) (pH 8.0, day 21, 25° C.): 47.9 ± 0.3%
Purity(%) at day 21 (40° C.) (pH 8.0, day 21, 40° C.): 0%
Purity (%) at day 21 (60° C.) (pH 8.0, day 21, 60° C.): 0%
SMILES: CCN(CC)CCOC(=O)C(C)c1ccc2oc(-c3ccc(Cl)cc3)nc2c1.Cl (centres unmarked)

Stability of the solution at a temperature higher than 40° C. and a pH lower than 3 or greater than 6: not stable
SMILES: CCN(CC)CCOC(=O)COc1nn(Cc2ccccc2)c2ccccc12.Cl [2-(diethylamino)ethyl [(1-benzyl-1H-indazol-3-yl)oxy]acetate•HCl]
